Results taken from paper PMC5218480 (PLoS ONE, 2017).

Test system: MV-4-11 cells
Test: Gene expression microarray analysis (Affymetrix PrimeView) and GSEA
Format: cell-based, human
Parameters: RFU PODN (11730768_x_at) / Fold change /veh PODN (11730768_x_at) / RFU LINC00158 (11744669_a_at) / Fold change /veh LINC00158 (11744669_a_at) / RFU DUSP10 (11751237_a_at) / Fold change /veh DUSP10 (11751237_a_at) / RFU ID3 (11757404_x_at) / Fold change /veh ID3 (11757404_x_at) / RFU PLEKHG5 (11737974_s_at) / Fold change /veh PLEKHG5 (11737974_s_at) / RFU LRRC4B (11730491_at) / Fold change /veh LRRC4B (11730491_at) / RFU GIMAP4 (11747438_a_at) / Fold change /veh GIMAP4 (11747438_a_at) / RFU KRT8 (11758183_x_at) / Fold change /veh KRT8 (11758183_x_at) / RFU CNN1 (11734310_a_at) / Fold change /veh CNN1 (11734310_a_at) / RFU VPS37D (11726825_at) / Fold change /veh VPS37D (11726825_at) / RFU C10orf10 (11716522_x_at) / Fold change /veh C10orf10 (11716522_x_at) / RFU KIR2DL2 /// KIR2DL4 /// KIR2DL5A /// KIR2DL5B /// KIR2DS1 /// KIR2DS2 /// KIR2DS3 /// KIR2DS4 /// KIR3DL3 /// KIR3DL3 /// KIR3DS1 (11738374_at) / Fold change /veh KIR2DL2 /// KIR2DL4 /// KIR2DL5A /// KIR2DL5B /// KIR2DS1 /// KIR2DS2 /// KIR2DS3 /// KIR2DS4 /// KIR3DL3 /// KIR3DL3 /// KIR3DS1 (11738374_at) / RFU C1QL1 (11718748_at) / Fold change /veh C1QL1 (11718748_at) / RFU TMPRSS4 (11747572_a_at) / Fold change /veh TMPRSS4 (11747572_a_at) / RFU HAMP (11756126_x_at) / Fold change /veh HAMP (11756126_x_at) / RFU RNFT2 (11725882_a_at) / Fold change /veh RNFT2 (11725882_a_at) / RFU NR4A2 (11747474_a_at) / Fold change /veh NR4A2 (11747474_a_at) / RFU ABCC12 (11746883_a_at) / Fold change /veh ABCC12 (11746883_a_at) / RFU TMEM136 (11760407_x_at) / Fold change /veh TMEM136 (11760407_x_at) / RFU CLDN22 /// WWC2 (11732394_at) / Fold change /veh CLDN22 /// WWC2 (11732394_at) / RFU HLA-DPB1 (11760878_x_at) / Fold change /veh HLA-DPB1 (11760878_x_at) / RFU SPINT1 (11716480_a_at) / Fold change /veh SPINT1 (11716480_a_at) / RFU GAP43 (11754022_s_at) / Fold change /veh GAP43 (11754022_s_at) / RFU A4GNT (11735810_at) / Fold change /veh A4GNT (11735810_at) / RFU PRB3 (11715151_x_at) / Fold change /veh PRB3 (11715151_x_at) / RFU TUBB4B (11761932_at) / Fold change /veh TUBB4B (11761932_at) / RFU CAPN14 (11732068_a_at) / Fold change /veh CAPN14 (11732068_a_at) / RFU TMCC2 (11721928_a_at) / Fold change /veh TMCC2 (11721928_a_at) / RFU IRGQ (11745062_a_at) / Fold change /veh IRGQ (11745062_a_at) / RFU FAM174B (11720279_a_at) / Fold change /veh FAM174B (11720279_a_at) / RFU TMPRSS4 (11748680_a_at) / Fold change /veh TMPRSS4 (11748680_a_at) / RFU FAM212B (11763350_a_at) / Fold change /veh FAM212B (11763350_a_at) / RFU PLEKHG5 (11743358_a_at) / Fold change /veh PLEKHG5 (11743358_a_at) / RFU ZSCAN30 (11745921_a_at) / Fold change /veh ZSCAN30 (11745921_a_at) / RFU CMKLR1 (11741424_a_at) / Fold change /veh CMKLR1 (11741424_a_at) / RFU LOC101060620 /// MAPK8IP1 (11723275_at) / Fold change /veh LOC101060620 /// MAPK8IP1 (11723275_at) / RFU SPTSSB (11747773_x_at) / Fold change /veh SPTSSB (11747773_x_at) / RFU PRSS12 (11739890_at) / Fold change /veh PRSS12 (11739890_at) / RFU BIN1 (11741810_x_at) / Fold change /veh BIN1 (11741810_x_at) / RFU WNT11 (11732464_a_at) / Fold change /veh WNT11 (11732464_a_at) / RFU C10orf10 (11716521_a_at) / Fold change /veh C10orf10 (11716521_a_at) / RFU C5orf56 (11738089_at) / Fold change /veh C5orf56 (11738089_at) / RFU CYB561 (11721691_x_at) / Fold change /veh CYB561 (11721691_x_at) / RFU ANKRD19P (11752326_a_at) / Fold change /veh ANKRD19P (11752326_a_at) / RFU OR2T12 /// OR2T33 /// OR2T8 (11738714_s_at) / Fold change /veh OR2T12 /// OR2T33 /// OR2T8 (11738714_s_at) / RFU VCAN (11748164_a_at) / Fold change /veh VCAN (11748164_a_at) / RFU JSRP1 (11732532_at) / Fold change /veh JSRP1 (11732532_at) / RFU KRTAP10-11 (11738290_x_at) / Fold change /veh KRTAP10-11 (11738290_x_at) / RFU MYO3A (11730013_a_at) / Fold change /veh MYO3A (11730013_a_at) / RFU EBF3 (11725865_a_at) / Fold change /veh EBF3 (11725865_a_at) / RFU CAMK2N1 (11719241_x_at) / Fold change /veh CAMK2N1 (11719241_x_at) / RFU C5orf56 (11738088_a_at) / Fold change /veh C5orf56 (11738088_a_at) / RFU OLFML3 (11715873_a_at) / Fold change /veh OLFML3 (11715873_a_at) / RFU LOC100653217 /// NTM (11731650_a_at) / Fold change /veh LOC100653217 /// NTM (11731650_a_at) / RFU MAPK11 (11762145_a_at) / Fold change /veh MAPK11 (11762145_a_at) / RFU FIZ1 (11724087_x_at) / Fold change /veh FIZ1 (11724087_x_at) / RFU OASL (11726364_x_at) / Fold change /veh OASL (11726364_x_at) / RFU SOX15 (11748057_x_at) / Fold change /veh SOX15 (11748057_x_at) / RFU CD79A (11719716_a_at) / Fold change /veh CD79A (11719716_a_at) / RFU HIST1H1D (11736915_at) / Fold change /veh HIST1H1D (11736915_at) / RFU CASKIN2 (11723855_a_at) / Fold change /veh CASKIN2 (11723855_a_at) / RFU LOC730098 (11760151_x_at) / Fold change /veh LOC730098 (11760151_x_at) / RFU OR4N2 (11742367_at) / Fold change /veh OR4N2 (11742367_at) / RFU PRRT2 (11749266_a_at) / Fold change /veh PRRT2 (11749266_a_at) / RFU SNX32 (11753110_a_at) / Fold change /veh SNX32 (11753110_a_at) / RFU CDHR5 (11726645_a_at) / Fold change /veh CDHR5 (11726645_a_at) / RFU RCAN1 (11760418_a_at) / Fold change /veh RCAN1 (11760418_a_at) / RFU FAM167A (11723789_a_at) / Fold change /veh FAM167A (11723789_a_at) / RFU FAM26E (11764081_at) / Fold change /veh FAM26E (11764081_at) / RFU ISYNA1 (11749810_s_at) / Fold change /veh ISYNA1 (11749810_s_at) / RFU ACY1 (11761880_at) / Fold change /veh ACY1 (11761880_at) / RFU 11764098_at / Fold change /veh 11764098_at / RFU SAMD14 (11745864_x_at) / Fold change /veh SAMD14 (11745864_x_at) / RFU NPB (11741838_a_at) / Fold change /veh NPB (11741838_a_at) / RFU TMPRSS6 (11731388_a_at) / Fold change /veh TMPRSS6 (11731388_a_at) / RFU KRTAP10-2 (11738614_at) / Fold change /veh KRTAP10-2 (11738614_at) / RFU ARHGAP8 /// PRR5-ARHGAP8 (11727945_x_at) / Fold change /veh ARHGAP8 /// PRR5-ARHGAP8 (11727945_x_at) / RFU KRTAP5-7 /// NADSYN1 (11734609_at) / Fold change /veh KRTAP5-7 /// NADSYN1 (11734609_at) / RFU RASL12 (11751679_a_at) / Fold change /veh RASL12 (11751679_a_at) / RFU CDKN2B (11736163_a_at) / Fold change /veh CDKN2B (11736163_a_at) / RFU PRF1 (11729649_at) / Fold change /veh PRF1 (11729649_at) / RFU, ZNF638 /// ZNF638-IT1 / Fold change vs veh, ZNF638 /// ZNF638-IT1 / RFU, PANK3 / Fold change vs veh, PANK3 / RFU, SH3YL1 / Fold change vs veh, SH3YL1 / RFU, ZEB2 / Fold change vs veh, ZEB2 / RFU, NRIP1 / Fold change vs veh, NRIP1 / RFU, PTTG1IP / Fold change vs veh, PTTG1IP / RFU, CAPN2 / Fold change vs veh, CAPN2 / RFU, MED14 / Fold change vs veh, MED14 / RFU, SNORA58 / Fold change vs veh, SNORA58 / RFU, C1orf63 / Fold change vs veh, C1orf63 / RFU, LRRFIP1 / Fold change vs veh, LRRFIP1 / RFU, NDUFAF7 / Fold change vs veh, NDUFAF7 / RFU, SLC12A2 / Fold change vs veh, SLC12A2 / RFU, IBTK / Fold change vs veh, IBTK / RFU, ESF1 / Fold change vs veh, ESF1 / Fold change vs veh, TMEM50B / RFU, TAOK1 / Fold change vs veh, TAOK1 / RFU, ACBD3 / Fold change vs veh, ACBD3 / RFU, TMA16 / Fold change vs veh, TMA16 / RFU, RWDD3 / Fold change vs veh, RWDD3 / RFU, BCAT1 / Fold change vs veh, BCAT1 / RFU, EDEM3 / Fold change vs veh, EDEM3 / RFU, TMEM33 / Fold change vs veh, TMEM33 / RFU, WDR75 / Fold change vs veh, WDR75 / RFU, AHCTF1 / Fold change vs veh, AHCTF1 / RFU, TFRC / Fold change vs veh, TFRC / RFU, ZDHHC17 / Fold change vs veh, ZDHHC17 / RFU, NOM1 / Fold change vs veh, NOM1 / RFU, ARL8B / Fold change vs veh, ARL8B / RFU, ZBTB11 / Fold change vs veh, ZBTB11 / RFU, TAMM41 / Fold change vs veh, TAMM41 / RFU, KIAA1704 /// LOC100996395 / Fold change vs veh, KIAA1704 /// LOC100996395 / RFU, ING1 / Fold change vs veh, ING1 / RFU, TRMT61B / Fold change vs veh, TRMT61B / RFU, FUBP3 / Fold change vs veh, FUBP3 / RFU, TP53 / Fold change vs veh, TP53 / RFU, TNKS2 / Fold change vs veh, TNKS2 / RFU, ZFP14 / Fold change vs veh, ZFP14 / RFU, ACTR2 / Fold change vs veh, ACTR2 / RFU, PPP3R1 / Fold change vs veh, PPP3R1 / RFU, PIK3R1 / Fold change vs veh, PIK3R1 / RFU, HNRNPA1 / Fold change vs veh, HNRNPA1 / RFU, RNF170 / Fold change vs veh, RNF170 / RFU, ZNF28 / Fold change vs veh, ZNF28 / RFU, RNGTT / Fold change vs veh, RNGTT / RFU, OGT / Fold change vs veh, OGT / RFU, BRD1 / Fold change vs veh, BRD1 / RFU, MARS / Fold change vs veh, MARS / RFU, ZNF655 / Fold change vs veh, ZNF655 / RFU, FAHD1 / Fold change vs veh, FAHD1 / RFU, BDP1 / Fold change vs veh, BDP1 / RFU, LRRCC1 / Fold change vs veh, LRRCC1 / RFU, ARID1A / Fold change vs veh, ARID1A / RFU, ZNF146 / Fold change vs veh, ZNF146 / RFU, ZNF330 / Fold change vs veh, ZNF330 / RFU, GPN3 / Fold change vs veh, GPN3 / RFU, C9orf123 / Fold change vs veh, C9orf123 / RFU, N4BP2L2 / Fold change vs veh, N4BP2L2 / RFU, ARFIP1 / Fold change vs veh, ARFIP1 / RFU, FAM179B / Fold change vs veh, FAM179B / RFU, BCL10 / Fold change vs veh, BCL10 / RFU, UHRF1BP1L / Fold change vs veh, UHRF1BP1L / RFU, BET1 / Fold change vs veh, BET1 / RFU, CNOT2 / Fold change vs veh, CNOT2 / RFU, ZNF268 / Fold change vs veh, ZNF268 / Fold change vs veh, ZNF507 / RFU, DGCR2 / Fold change vs veh, DGCR2 / RFU, WDSUB1 / Fold change vs veh, WDSUB1 / Fold change vs veh, HSP90B1 /// MIR3652 / RFU, ADSS / Fold change vs veh, ADSS / RFU, GK / Fold change vs veh, GK / RFU, ZNF148 / Fold change vs veh, ZNF148 / RFU, TAF9 / Fold change vs veh, TAF9 / RFU, SLC1A5 / Fold change vs veh, SLC1A5 / RFU, SLMO2 / Fold change vs veh, SLMO2 / RFU, ABCC4 / Fold change vs veh, ABCC4 / RFU, LOC101060439 /// RAP1B / Fold change vs veh, LOC101060439 /// RAP1B / RFU, RFX7 / Fold change vs veh, RFX7 / RFU, GTPBP10 / Fold change vs veh, GTPBP10 / RFU, CNEP1R1 / Fold change vs veh, CNEP1R1 / RFU, BIVM-ERCC5 /// ERCC5 / Fold change vs veh, BIVM-ERCC5 /// ERCC5 / RFU, ILF3 / Fold change vs veh, ILF3 / RFU 11762660_at / Fold change /veh 11762660_at / RFU VCAN (11757783_s_at) / Fold change /veh VCAN (11757783_s_at) / RFU DDX43 (11728927_at) / Fold change /veh DDX43 (11728927_at) / RFU KRT8 (11758188_x_at) / Fold change /veh KRT8 (11758188_x_at) / RFU NKD1 (11759106_at) / Fold change /veh NKD1 (11759106_at) / RFU SRD5A1 (11742802_a_at) / Fold change /veh SRD5A1 (11742802_a_at) / RFU TPSAB1 /// TPSB2 (11721975_s_at) / Fold change /veh TPSAB1 /// TPSB2 (11721975_s_at) / RFU GSTM3 (11746129_a_at) / Fold change /veh GSTM3 (11746129_a_at) / RFU IL23R (11737362_x_at) / Fold change /veh IL23R (11737362_x_at) / RFU TMEM51 (11727254_a_at) / Fold change /veh TMEM51 (11727254_a_at) / RFU PIWIL2 (11732686_x_at) / Fold change /veh PIWIL2 (11732686_x_at) / RFU ORM1 (11744905_x_at) / Fold change /veh ORM1 (11744905_x_at) / RFU CCDC152 (11743942_at) / Fold change /veh CCDC152 (11743942_at) / RFU ECM1 (11717891_a_at) / Fold change /veh ECM1 (11717891_a_at) / RFU IL23R (11748794_a_at) / Fold change /veh IL23R (11748794_a_at) / RFU TNFAIP8L3 (11732012_x_at) / Fold change /veh TNFAIP8L3 (11732012_x_at) / RFU MBOAT4 (11741988_at) / Fold change /veh MBOAT4 (11741988_at) / RFU 11764193_at / Fold change /veh 11764193_at / RFU TMEM53 (11763286_at) / Fold change /veh TMEM53 (11763286_at) / RFU MAGEB2 (11727129_at) / Fold change /veh MAGEB2 (11727129_at) / RFU TMEM200A (11744735_a_at) / Fold change /veh TMEM200A (11744735_a_at) / RFU CCDC152 (11751479_a_at) / Fold change /veh CCDC152 (11751479_a_at) / RFU FAM211A (11726209_a_at) / Fold change /veh FAM211A (11726209_a_at) / RFU RGS16 (11746705_a_at) / Fold change /veh RGS16 (11746705_a_at) / RFU VCAN (11755009_s_at) / Fold change /veh VCAN (11755009_s_at) / RFU RHOB (11743442_s_at) / Fold change /veh RHOB (11743442_s_at) / RFU RGS16 (11720943_a_at) / Fold change /veh RGS16 (11720943_a_at) / RFU RGS16 (11720944_at) / Fold change /veh RGS16 (11720944_at) / RFU, VPS4B / Fold change vs veh, VPS4B / RFU, CREB1 / Fold change vs veh, CREB1 / RFU, DNAJC13 / Fold change vs veh, DNAJC13 / RFU, GNAQ / Fold change vs veh, GNAQ / RFU, CDK5R1 / Fold change vs veh, CDK5R1 / RFU, ZRANB3 / Fold change vs veh, ZRANB3 / RFU, CUL4A / Fold change vs veh, CUL4A / RFU, CCNY / Fold change vs veh, CCNY / RFU, UFL1 / Fold change vs veh, UFL1 / RFU, COG3 / Fold change vs veh, COG3 / RFU, DIAPH2 / Fold change vs veh, DIAPH2 / RFU, SKA2 / Fold change vs veh, SKA2 / RFU, AFF3 / Fold change vs veh, AFF3 / RFU, LMF1 / Fold change vs veh, LMF1 / RFU, IPO11 / Fold change vs veh, IPO11 / RFU, DFFB / Fold change vs veh, DFFB / RFU, FOXP1 / Fold change vs veh, FOXP1 / RFU, CARD8 / Fold change vs veh, CARD8 / RFU, STRN3 / Fold change vs veh, STRN3 / RFU, ADK / Fold change vs veh, ADK / RFU, RASSF2 / Fold change vs veh, RASSF2 / RFU, WIPF1 / Fold change vs veh, WIPF1 / RFU, LARP1B / Fold change vs veh, LARP1B / RFU, RASA1 / Fold change vs veh, RASA1 / RFU, RB1 / Fold change vs veh, RB1 / RFU, PPFIA1 / Fold change vs veh, PPFIA1 / RFU, MAT2A / Fold change vs veh, MAT2A / RFU, CCT5 / Fold change vs veh, CCT5 / RFU, WDR92 / Fold change vs veh, WDR92 / RFU, CUX1 / Fold change vs veh, CUX1 / RFU, TTC7A / Fold change vs veh, TTC7A / RFU, TMEM135 / Fold change vs veh, TMEM135 / RFU, DEPTOR / Fold change vs veh, DEPTOR / RFU, CPM / Fold change vs veh, CPM / RFU, DNAJB6 / Fold change vs veh, DNAJB6 / RFU, CACNA2D3 / Fold change vs veh, CACNA2D3 / RFU, DTX4 / Fold change vs veh, DTX4 / RFU, TFCP2 / Fold change vs veh, TFCP2 / RFU, GMCL1 /// GMCL1P1 / Fold change vs veh, GMCL1 /// GMCL1P1 / RFU, AEBP2 / Fold change vs veh, AEBP2 / RFU, SNHG1 /// SNORD22 /// SNORD25 /// SNORD26 /// SNORD27 /// SNORD28 /// SNORD29 /// SNORD31 / Fold change vs veh, SNHG1 /// SNORD22 /// SNORD25 /// SNORD26 /// SNORD27 /// SNORD28 /// SNORD29 /// SNORD31 / Fold change (Aza/veh), C12orf56 (ProbeSet 11735607_a_at) / Fold change (ACY-1035/veh), C12orf56 (ProbeSet 11735607_a_at) / Fold change (Aza/veh), FGFR1OP (ProbeSet 11751329_s_at) / Fold change (ACY-1035/veh), FGFR1OP (ProbeSet 11751329_s_at) / Fold change (Aza/veh), VPS36 (ProbeSet 11739960_a_at) / Fold change (ACY-1035/veh), VPS36 (ProbeSet 11739960_a_at) / RFU SYPL1 (11715823_x_at) / Fold change /veh SYPL1 (11715823_x_at) / RFU IGFBP7 (11715501_s_at) / Fold change /veh IGFBP7 (11715501_s_at) / RFU REEP3 (11722064_at) / Fold change /veh REEP3 (11722064_at) / RFU IGLL1 (11728026_x_at) / Fold change /veh IGLL1 (11728026_x_at): dose or concentration left out as unconfirmed
Settings: ProbeSet 11720269_a_at; LIST B

SMILES: Nc1ccc(-c2cccs2)cc1NC(=O)c1ccc2c(c1)cc(C1CC1)n2CCN1CCOCC1 [ACY-1035]
- Fold change vs veh, IBTK: 0.93
